# Molecular target: T1, 17-beta-hydroxysteroid dehydrogenase type 1 (Homo sapiens, UniProt P14061)
# T1 sequence (P14061 whole entry): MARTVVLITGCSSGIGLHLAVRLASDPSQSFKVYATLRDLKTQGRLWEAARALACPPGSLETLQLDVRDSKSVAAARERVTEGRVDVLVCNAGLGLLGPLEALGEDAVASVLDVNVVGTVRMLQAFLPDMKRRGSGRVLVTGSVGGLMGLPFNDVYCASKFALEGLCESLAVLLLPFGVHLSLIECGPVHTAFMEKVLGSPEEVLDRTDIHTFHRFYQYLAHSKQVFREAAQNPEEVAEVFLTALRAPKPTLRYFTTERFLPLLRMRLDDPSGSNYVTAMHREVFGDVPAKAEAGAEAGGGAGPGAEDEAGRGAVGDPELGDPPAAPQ
# Assay: (§1) Inhibition of 17-beta HSD1 in T47D cells
# Assay type: functional, cell-based
row,SMILES,IC50
1,CCOC(=O)CC1C[C@H]2[C@@H]3CCc4cc(O)ccc4[C@H]3CC[C@]2(C)C1=O (stereo not given in full),300 nM
2,C[C@]12CC[C@@H]3c4ccc(O)cc4CC[C@H]3[C@@H]1CC(C(=O)NCc1cccnc1)[C@@H]2O (stereo not given in full),510 nM
3,CCOC[C@H]1C[C@H]2[C@@H]3CCc4cc(O)ccc4[C@H]3CC[C@]2(C)C1=O,320 nM
4,C[C@]12CC[C@@H]3c4ccc(O)cc4/C(=N\O)C[C@H]3[C@@H]1CC/C2=N\O,1900 nM
5,C[C@]12CC[C@@H]3c4ccc(O)cc4CC[C@H]3[C@@H]1C/C(=C\c1ccncc1)[C@@H]2O,4100 nM
6,CC(NC(=O)C1C[C@H]2[C@@H]3CCc4cc(O)ccc4[C@H]3CC[C@]2(C)[C@H]1O)c1ccccc1 (stereo not given in full),810 nM
7,C[C@]12CC[C@@H]3c4ccc(O)cc4CC[C@H]3[C@@H]1CC(CC(=O)NCC1CCCO1)C2=O (stereo not given in full),380 nM
8,C[C@]12CC[C@@H]3c4ccc(O)cc4C(=O)C[C@H]3[C@@H]1CCC2=O,340 nM
9,CNC(=O)CC1C[C@H]2[C@@H]3CCc4cc(O)ccc4[C@H]3CC[C@]2(C)C1=O (stereo not given in full),1500 nM

# Molecular target: T2, 17-beta-hydroxysteroid dehydrogenase type 1 (Homo sapiens) (UniProt P14061)
# T2 sequence (whole entry): T1 sequence (P14061 whole entry)
# Assay: as §1
# Assay type: functional, cell-based
row,SMILES,IC50
1,C[C@]12CCC3c4ccc(O)cc4C(=O)CC3C1CC(C=O)=C2O (stereo not given in full),700 nM

# — ChEMBL document CHEMBL1149452 (J Med Chem, 2006)
